According to PMC12445440 (Journal of Medical Virology, 2025):
pEC50: −log10 of the molar value.

What was measured:
[1] = test system: Huh-7 cells; assay: Cytotoxicity by WST-8, uninfected Huh-7 cells; conditions: read-out: CC50 Huh-7; Table S2, this paper data
[2] = test system: ZIKV^Br; assay: Virus yield reduction assay, ZIKV^Br on Huh-7 cells; format: cell-based, Zika virus
[3] = test system: Vero76; parameters: method as in earlier work; conditions: previously published data; ref [18]-[22] of main text, [3] of supplement for PS1086, PS1100, PS1101; cited from earlier work
[4] = Cytotoxicity by WST-8, uninfected Huh-7 cells; conditions: human
[5] = test system: BVDV; conditions: previously published data; Na = no detected antiviral activity; ref [18]-[22] of main text, [3] of supplement for PS1086, PS1100, PS1101; cited from earlier work
[6] = test system: ZIKV^Br; assay: Virus yield assay, ZIKV^Br on Vero TMPRSS cells; format: cell-based; conditions: Zika virus, 95% CI in brackets
[7] = test system: ZIKV NS5; assay: ZIKV protein synthesis by western blot (NS5), Huh-7 cells; format: cell-based, Zika virus; conditions: MOI 1, 1x, 5x, 10x EC50 (PS1097 0.6, 3, 6 μM; SOF 1.5, 7.5, 15 μM), 48 h
Description: (§1) Immunoblotting was performed as described.
(§2) Viral protein levels in cell lysates were analyzed by immunoblotting (Figure 3A,B), while virion release was assessed by quantifying ZIKV RNA in supernatants (Figure 3C).
(§3) Impact of treatment on ZIKV protein synthesis was evaluated on cell extracts analyzed by western blot using anti‐ ZIKV NS5, or anti‐GAPDH as a housekeeping control.

[8] = test system: HSV2; assay: Plaque reduction assay, HSV2 on A549 cells; format: cell-based, herpes simplex virus 2; conditions: Human alphaherpesvirus 2
[9] = test system: CVB5; assay: Plaque reduction assay, CVB5 on A549 cells; format: cell-based, Coxsackievirus B5; conditions: Enterovirus B, 95% CI in brackets
[10] = test system: ZIKV^Br; assay: Time-of-addition (TOA) experiments, ZIKV^Br in Huh-7 cells; format: cell-based, Zika virus; conditions: harvest 48 h p.i.; for Time of addition giving the strongest inhibition: Huh-7, ZIKV^Br MOI 1, 10x EC50 (PS1097 6 μM, SOF 15 μM)
Description: PS1097 was added at 6 μM at 0, 2, 6, 12, 24, and 36 h p.i. SOF was used as a reference compound at 15 μM. At 48 h p.i., viral proteins were determined by western blot or by qRT‐PCR in cell lysates.
To elucidate the mechanism of PS1097 antiviral action, TOA experiments were conducted (Figure 4A). ZIKV^Br replication kinetics was assessed by quantifying viral genomic RNA and protein inside Huh‐7 cells at the times p.i. shown in Figure 4A. Viral RNA was detectable as of ~12 h p.i. (Figure 4D), whereas viral protein was visible after 24 h p.i. (Figure 4B,C). In parallel, cells were exposed to viral inoculum for 2 h. […] Then, they were harvested at 48 h p.i. Viral RNA in cells was measured by qRT‐PCR and inhibition relative to DMSO‐treated cells was calculated, as described by (Figure 4G).
(§4) Figure 4 (A) Experimental design of the Time Of Addition (TOA) assay for PS1097 and SOF. (B) ZIKV replication kinetics was determined on Huh‐7 cells infected at MOI 1for 2 h by western blot cell lysates prepared at the times shown. ZIKV NS5 and GAPDH were monitored with the antibodies in Supporting Information: Table S1. (C) Quantitative analysis of the results in B). (D) qRT‐PCR quantification of ZIKV RNA was carried out in ZIKV‐infected cells lysed at the times indicated on the x axis. (E) western blot of lysates of Huh‐7 cells harvested at 48 h p.i. where treatment with PS1097 or SOF was started as by A). (F) Quantitative analysis of the results in E). (G) ZIKV RNA was quantified in lysates of cells harvested at 48 h p.i. where treatment with PS1097 (red line) or SOF (green line) was started at the times p.i. indicated on the x axis. (H) Combined antiviral activity of PS1097 with SOF against ZIKV. Huh‐7 cells were infected with ZIKV then treated with PS1097 or SOF, alone or in combination, at the indicated concentrations. After 48 h p.i., supernatants were harvested and titrated for ZIKV yield. Two‐dimensional representation of dose–response interaction matrix was determined in synergyfinder.org. Color gradient indicates viral yield inhibition score (red‐highest score). […]

[11] = test system: ZIKV^Br; assay: Virus yield assay, ZIKV^Br on VeroE6 cells; format: cell-based; conditions: Zika virus, Vero C1008, 95% CI in brackets
[12] = test system: TMEM41B; assay: Western blot of ER proteins in Huh-7 cells: TMEM41B; conditions: 6 μM PS1097, 48 h
[13] = Cytotoxicity by WST-8, HMC3 cells; format: cell-based; conditions: human, 95% CI in brackets
Description: (§5) Cytotoxic/cytostatic effects were evaluated in uninfected cells by WST‐8 (Orangu, Cell Guidance Systems): 1 × 10^4 cells/well in a 96‐well plate were incubated in the presence of threefold serial dilutions of compounds, from 0.30 to 218 μM, for 48 h. Medium was replaced with 50 μL of 10% WST‐8, in DMEM, 2% FBS. Following a 1‐h incubation at 37°C, optical density (OD) in wells was measured at 450 nm using Varioskan LUX (ThermoFisher Scientific). CC50 was calculated using the formula: %viability=100×(ODcompound/ODuntreated control) where ODcompound and ODuntreated are the OD of the cells treated with compound or DMSO, respectively.

[14] = test system: ZIKV^Br; assay: Virus yield assay, ZIKV^Br on HMC3 cells; format: cell-based; conditions: Zika virus
[15] = in vitro; conditions: simian
[16] = test system: WNV; assay: microbe, parasite or virus in culture; format: cell-based; conditions: West Nile virus; WNV (Huh-7); 95% CI in brackets
[17] = test system: FAM134B; assay: Western blot of ER proteins in Huh-7 cells: FAM134B; conditions: 6 μM PS1097, 48 h
[18] = Cytotoxicity by WST-8, VeroE6 cells; format: cell-based; conditions: simian, 95% CI in brackets
Description: as §5

[19] = test system: ZIKV^Br; assay: Synergism between PS1097 and SOF, ZIKV^Br yield; format: cell-based, Zika virus
Description: as §4, with “score). (I) Three‐dimensional surface plot representing synergy score (Z axis) for each compound combination.” for “score).”

[20] = test system: SARS-CoV-2^Mi; assay: microbe, parasite or virus in culture; format: cell-based; conditions: Severe acute respiratory syndrome coronavirus 2; SARS-CoV-2^Mi (Vero TMPRSS); 95% CI in brackets
[21] = test system: VV-IND-G; assay: microbe, parasite or virus in culture; format: cell-based, Vaccinia virus recombinant for VSV-Indiana G protein; conditions: Orthopoxvirus vaccinia, Huh-7
[22] = test system: CHIKV; assay: Plaque reduction assay, CHIKV on Huh-7 cells; format: cell-based; conditions: Chikungunya virus, CHIKV (Huh-7), 95% CI in brackets
[23] = Cytotoxicity by WST-8, A549 cells; format: cell-based; conditions: human, 95% CI in brackets
Description: as §5

[24] = test system: USUV; assay: microbe, parasite or virus in culture; format: cell-based; conditions: Usutu virus; USUV (Huh-7); 95% CI in brackets
[25] = Cytotoxicity by WST-8, C6/36 cells; format: cell-based; conditions: Aedes albopictus, 95% CI in brackets
Description: as §5

[26] = test system: ZIKV^Br; assay: Virus yield assay, ZIKV^Br on A549 cells; format: cell-based; conditions: Zika virus, 95% CI in brackets
[27] = test system: ZIKV^Ug; assay: microbe, parasite or virus in culture; format: cell-based; conditions: Zika virus; ZIKV^Ug (Huh-7); 95% CI in brackets
[28] = test system: IAV; assay: microbe, parasite or virus in culture; format: cell-based; conditions: Influenza A virus, MDCK
[29] = test system: RTN4; assay: Western blot of ER proteins in Huh-7 cells: RTN4; conditions: 6 μM PS1097, 48 h
[30] = test system: VSV; assay: microbe, parasite or virus in culture; format: cell-based; conditions: Vesicular stomatitis virus, Huh-7
[31] = test system: TOSV; assay: Plaque reduction assay, TOSV on VeroE6 cells; format: cell-based; conditions: Toscana virus, Vero C1008
[32] = test system: ZIKV NS5; assay: ZIKV protein synthesis by western blot (NS5), Vero E6 cells; format: cell-based, Zika virus; conditions: MOI 1, 1x, 5x, 10x EC50, 48 h
Description: as §1, §2, §3

[33] = test system: ZIKV^Br; assay: Virus yield assay, ZIKV^Br on C6/36 cells; format: cell-based; conditions: Zika virus, 95% CI in brackets
[34] = test system: ZIKV^Br
[35] = Zika virus, Huh-7, 48 h, ZIKV^Br on Huh-7 cells, viral yield reduction, 48 h, 95% confidence interval in brackets
[36] = Zika virus, Huh-7, read-out: EC50 ZIKV, Table S2, this paper data, Huh-7 cells, Na = no detected antiviral activity

With `O=c1nc(NO)ccn1[C@@H]1O[C@H](CO)[C@@H](O)[C@H]1O` [EIDD-1931, β‐D‐N4‐hydroxycytidine, reference compound] the CC50 [1] was 148 µM and the pEC50 ([2]; Table S2, this paper data, Huh-7 cells, Na = no detected antiviral activity, read-out: EC50 ZIKV) was 5.77.

In the case of `CC(C)c1nc2cc3cccnc3c(Cl)c2[nH]c1=O` [PS462], the CC50 [3] is given as over 100 µM, the CC50 at 48 h [4] is given as 294 µM and the pEC50 [5] is given as 5.30. It also gave a pEC50 [2, 35] of under 4.00 and a pEC50 [2, 36] of 4.00.

For `O=c1[nH]c2cc3cccnc3c(Cl)c2nc1-c1cccs1` [PS1097, 5‐chloro‐3‐(thiophen‐2‐yl) pyrido[2,3‐g] quinoxalin‐2(1H)‐one], the pEC50 [6] is given as 5.58, the CC50 [3] is given as over 100 µM and the “ZIKV protein expression (NS5, western blot)” value [7] is given as “downregulated viral protein expression”. It also gave a pEC50 [8] of under 4.30, a CC50 at 48 h [4] of 229 µM and a pEC50 [9] of 5.35. For the same compound, the “Time of addition up to which viral protein expression is suppressed” value ([10]; Huh-7, ZIKV^Br MOI 1, 10x EC50 (6 μM)) was “up to 12 h p.i”, the “Time of addition giving the strongest inhibition” value [10] was 0–6 h p.i and the pEC50 [11] was 5.87. The “TMEM41B protein content (western blot)” value [12] was “virtually unchanged”, the CC50 at 48 h [13] was 294 µM and the pEC50 [14] was under 4.00. For the same compound, the CC50 [15] was 86.2 µM, the CC50 ([15]; CC50, Vero TMPRSS cells (SARS-CoV-2^Mi row of Table 2), 95% CI in brackets) was 436 µM and the pEC50 [16] was 5.94. For the same compound, the “FAM134B protein content (western blot)” value [17] was “virtually unchanged”, the CC50 at 48 h ([18]; VeroE6 cells, VeroE6 cells (TOSV row of Table 2)) was 575 µM and the CC50 at 48 h ([18]; VeroE6 cells (ZIKV^Br row of Table 2)) was 126 µM. For the same compound, the pEC50 [5] was 5.30, the “Interaction of PS1097 with SOF (synergy)” value ([19]; combined treatment PS1097 2.0–0.125 μM with SOF 5.0–0.39 μM, 48 h p.i., SynergyFinder) was “No synergistic effects” and the “Interaction of PS1097 with SOF at the highest concentrations” value ([19]; combined treatment, highest concentrations (PS1097 up to 2 μM, SOF up to 5 μM)) was “slight antagonistic effect”. It also gave a pEC50 [20] of 7.00, a pEC50 [21] of 5.76 and a pEC50 ([2]; ZIKV^Br on Huh-7 cells, viral yield reduction, 48 h, 95% confidence interval in brackets) of 6.16. The pEC50 [2, 35] was 6.22, the pEC50 ([2]; Zika virus, Huh-7, summary value of the discussion for Flaviviruses, read-out: EC50 against Flaviviruses) was about 6.15 and the pEC50 [22] was 5.36. For the same compound, the CC50 at 48 h ([23]; A549 cells (CVB5 and HSV2 rows of Table 2)) was 218 µM, the CC50 at 48 h ([23]; A549 cells (ZIKV^Br row of Table 2)) was 130 µM and the pEC50 [24] was 6.07. It also gave a CC50 at 48 h [25] of 150 µM, a pEC50 [26] of 4.35 and a pEC50 [27] of 5.89. The pEC50 [28] was under 4.30, the “RTN4 protein content (western blot)” value [29] was “virtually unchanged” and the pEC50 [30] was under 4.30. For the same compound, the pEC50 [31] was under 4.30, the “ZIKV protein content (NS5, western blot)” value [32] was “consistently reduced protein levels” and the pEC50 [33] was 5.26. The “Selection of resistant ZIKV variants” value ([34]; ZIKV^Br passaged weekly on Huh-7 from 0.6 μM PS1097, at least four attempts) was “no resistant strains” and the “Passage at which no viral yield was found” value ([34]; ZIKV^Br passaged weekly on Huh-7 in the presence of PS1097) was 9 passage.

In the case of `Cn1c(=O)c(-c2cccs2)nc2c(Cl)c3ncccc3cc21` [PS1240], the CC50 [3] is listed as over 100 µM, the CC50 at 48 h [4] is listed as 293 µM and the pEC50 [5] is listed as 5.70. The pEC50 [2, 35] was 5.69.

For `NC(=O)c1ncn([C@@H]2O[C@H](CO)[C@@H](O)[C@H]2O)n1` [RBV, 1‐(b‐D‐ribofuranosyl)‐1H‐1,2,4‐triazole‐3‐carboxamide, reference compound], the CC50 at 48 h [4] was 144 µM and the pEC50 ([2]; Zika virus, ZIKV^Br on Huh-7 cells, viral yield reduction, 48 h, 95% confidence interval in brackets, read-out: EC50) was 5.06.

In the case of `CC(C)OC(=O)[C@H](C)N[P@](=O)(OC[C@H]1O[C@@H](n2ccc(=O)[nH]c2=O)[C@](C)(F)[C@@H]1O)Oc1ccccc1` [SOF, Sofosbuvir, reference compound], the “ZIKV protein expression (NS5, western blot)” value [7] was “completely abolished protein synthesis”, the CC50 at 48 h [4] was 282 µM and the “Time of addition giving the strongest inhibition” value [10] was 0–6 h p.i. For the same compound, the pEC50 [2, 35] was 5.82, the pEC50 [2, 36] was 5.82 and the “ZIKV protein content (NS5, western blot)” value [32] was “no effect on viral protein content”.
